System: P493-6 (myc "on") cells
Assay: Cell proliferation assay
Format: cell-based
Conditions: P493-6, 72 h, read-out: Cell prolif P493 72 h IC50
Protocol: P493-6 (myc “on”) cells were maintained in growth media (RPMI-1640, 10% FBS, 2 mM glutamine, 100 units/ml Penicillin and 100 μg/ml streptomycin) at 37° C. with 5% CO2. For compound assay, P493-6 cells were plated in 96-well V-bottom plates on the day of compound addition in 50 μl of growth media at a cell density of 200,000 cells/ml (10,000 cells/well). Compounds were serially diluted in 100% DMSO at 200-times the final concentration. Compounds were diluted 100-fold into growth media and then 50 μl of this mixture was added to cell plates making the final concentration of DMSO 0.5%. Cells were incubated with compound for 72 hrs at 37° C. with 5% CO2 and analyzed for antiproliferative effects either by Cell Titer Glo (Promega) or FACS analysis using the Viacount (Millipore) kit on the Guava instrument.

Row | SMILES | IC50
1 | O=C(Cc1ccccc1)Nc1nnc(CCSCCc2nnc(NC(=O)Cc3ccccc3)s2)s1 [Compound 1] | 470 nM
2 | CCCC(=O)OCN(C(=O)Cc1ccccc1)c1nnc(CCCCc2ccc(NC(=O)Cc3ccccc3)nn2)s1 [Compound 402] | 54 nM
3 | CC(C)(C)OC(=O)NCc1cccc(CC(=O)Nc2nnc(CCCCc3ccc(NC(=O)Cc4cccc(OC(F)(F)F)c4)nn3)s2)c1 [Compound 586] | 31 nM
4 | CCOC(=O)NCc1cccc(CC(=O)Nc2nnc(CCCCc3ccc(NC(=O)Cc4cccc(OC(F)(F)F)c4)nn3)s2)c1 [Compound 600] | 8 nM
5 | O=C(Cc1ccccc1OC(F)(F)F)Nc1ccc(CCCCc2nnc(NC(=O)Cc3ccccc3)s2)nn1 [Compound 614] | 82 nM
6 | O=C(Cc1ccc(OC(F)(F)F)cc1)Nc1ccc(CCCCc2nnc(NC(=O)Cc3ccccc3)s2)nn1 [Compound 615] | 120 nM
7 | CCCC(=O)OCN(C(=O)Cc1ccccc1)c1nnc(CCCCc2ccc(NC(=O)Cc3cccc(OC(F)(F)F)c3)nn2)s1 [Compound 629] | 65 nM
8 | CC(C(=O)Nc1nnc(CCCCc2ccc(NC(=O)Cc3cccc(OC(F)(F)F)c3)nn2)s1)c1ccccc1 (stereo not shown) [Compound 636] | 59 nM
9 | Nc1nnc(CCCCc2ccc(NC(=O)Cc3cccc(OC(F)(F)F)c3)nn2)s1 [Compound 657] | 1500 nM
10 | COc1cccc(CC(=O)Nc2nnc(CCCCc3ccc(NC(=O)Cc4cccc(OC(F)(F)F)c4)nn3)s2)c1 [Compound 658] | 40 nM
11 | O=C(Cc1cccc(OC(F)(F)F)c1)Nc1ccc(CCCCc2nnc(NC(=O)Cc3cc(F)ccc3F)s2)nn1 [Compound 659] | 58 nM
12 | O=C(Cc1cccc(OC(F)(F)F)c1)Nc1ccc(CCCCc2nnc(NC(=O)Cc3ccc(F)cc3)s2)nn1 [Compound 661] | 120 nM
13 | O=C(Cc1cccc(OC(F)(F)F)c1)Nc1ccc(CCCCc2nnc(NC(=O)Cc3cc(F)cc(F)c3)s2)nn1 [Compound 662] | 55 nM
14 | O=C(Cc1cccc(OC(F)(F)F)c1)Nc1ccc(CCCCc2nnc(NC(=O)Cc3cccc(F)c3F)s2)nn1 [Compound 663] | 89 nM
15 | O=C(Cc1cccc(OC(F)F)c1)Nc1ccc(CCCCc2nnc(NC(=O)Cc3ccccc3)s2)nn1 [Compound 666] | 58 nM
16 | O=C(Cc1cccc(OC(F)(F)F)c1)Nc1ccc(CCCCc2nnc(NC(=O)Cc3cccc(OC(F)F)c3)s2)nn1 [Compound 668] | 26 nM
17 | O=C(Cc1cccc(OC(F)(F)F)c1)Nc1ccc(CCCCc2nnc(NC(=O)Cc3cccc(OCC(F)(F)F)c3)s2)nn1 [Compound 669] | 26 nM
18 | O=C(Cc1cccc(OC(F)(F)F)c1)Nc1ccc(CCCCc2nnc(NC(=O)Cc3cccnc3)s2)nn1 [Compound 671] | 35 nM
19 | O=C(Cc1cccc(OC(F)(F)F)c1)Nc1ccc(CCCCc2nnc(NC(=O)Cc3ccncc3)s2)nn1 [Compound 672] | 45 nM
20 | O=C(Cc1cccc(OC(F)(F)F)c1)Nc1ccc(CCCCc2nnc(NC(=O)Cc3ccccc3F)s2)nn1 [Compound 673] | 33 nM
21 | CSc1cccc(CC(=O)Nc2nnc(CCCCc3ccc(NC(=O)Cc4cccc(OC(F)(F)F)c4)nn3)s2)c1 [Compound 674] | 24 nM
22 | O=C(Cc1cccc(OC(F)(F)F)c1)Nc1ccc(CCCCc2nnc(NC(=O)Cc3cncnc3)s2)nn1 [Compound 675] | 40 nM

Row | SMILES | IC50
23 | O=C(Cc1cccc(OC(F)(F)F)c1)Nc1ccc(CCCCc2nnc(NC(=O)Cc3cnccn3)s2)nn1 [Compound 676] | 30 nM
24 | O=C(Cc1cccc(OC(F)(F)F)c1)Nc1ccc(CCCCc2nnc(NC(=O)Cc3ccon3)s2)nn1 [Compound 677] | 56 nM
25 | O=C(Cc1cccc(OC(F)(F)F)c1)Nc1ccc(CCCCc2nnc(NC(=O)Cc3cscn3)s2)nn1 [Compound 678] | 26 nM
26 | O=C(Cc1cccc(OC(F)(F)F)c1)Nc1ccc(CCCCc2nnc(NC(=O)Cc3cccc(Cl)c3)s2)nn1 [Compound 680] | 33 nM
27 | CS(=O)(=O)c1cccc(CC(=O)Nc2nnc(CCCCc3ccc(NC(=O)Cc4cccc(OC(F)(F)F)c4)nn3)s2)c1 [Compound 681] | 19 nM
28 | C[S+]([O-])c1cccc(CC(=O)Nc2nnc(CCCCc3ccc(NC(=O)Cc4cccc(OC(F)(F)F)c4)nn3)s2)c1 (stereo not shown) [Compound 682] | 17 nM
29 | O=C(Cc1cccc(OC(F)(F)F)c1)Nc1ccc(CCCCc2nnc(NC(=O)Cc3ccc(Cl)nc3)s2)nn1 [Compound 683] | 24 nM
30 | COCCC(C(=O)Nc1nnc(CCCCc2ccc(NC(=O)Cc3cccc(OC(F)(F)F)c3)nn2)s1)c1cccnc1 (stereo not shown) [Compound 684] | 42 nM
31 | Cn1cc(CC(=O)Nc2nnc(CCCCc3ccc(NC(=O)Cc4cccc(OC(F)(F)F)c4)nn3)s2)cn1 [Compound 685] | 22 nM
32 | Cc1c(CC(=O)Nc2nnc(CCCCc3ccc(NC(=O)Cc4cccc(OC(F)(F)F)c4)nn3)s2)cnn1C [Compound 686] | 10 nM
33 | Cn1ccc(CC(=O)Nc2nnc(CCCCc3ccc(NC(=O)Cc4cccc(OC(F)(F)F)c4)nn3)s2)n1 [Compound 687] | 11 nM
34 | Cc1nc(CC(=O)Nc2nnc(CCCCc3ccc(NC(=O)Cc4cccc(OC(F)(F)F)c4)nn3)s2)c(C)s1 [Compound 688] | 12 nM
35 | O=C(Cc1cccc(OC(F)(F)F)c1)Nc1ccc(CCCCc2nnc(NC(=O)C(O)c3ccccc3)s2)nn1 (stereo not shown) [Compound 689] | 13 nM
36 | O=C(Cc1cccc(OC(F)(F)F)c1)Nc1ccc(CCCCc2nnc(NC(=O)C(OC(=O)C(O)c3ccccc3)c3ccccc3)s2)nn1 (stereo not shown) [Compound 690] | 17 nM
37 | N#Cc1cccc(CC(=O)Nc2nnc(CCCCc3ccc(NC(=O)Cc4cccc(OC(F)(F)F)c4)nn3)s2)c1 [Compound 692] | 20 nM
38 | O=C(Cc1cccc(OC(F)(F)F)c1)Nc1ccc(CCCCc2nnc(NC(=O)Cn3cccn3)s2)nn1 [Compound 693] | 70 nM
39 | Cc1nn(C(=O)OC(C)(C)C)c(C)c1CC(=O)Nc1nnc(CCCCc2ccc(NC(=O)Cc3cccc(OC(F)(F)F)c3)nn2)s1 [Compound 694] | 29 nM
40 | Cc1n[nH]c(C)c1CC(=O)Nc1nnc(CCCCc2ccc(NC(=O)Cc3cccc(OC(F)(F)F)c3)nn2)s1 [Compound 695] | 30 nM
41 | CC(C)(C)OC(=O)n1cnc(CC(=O)Nc2nnc(CCCCc3ccc(NC(=O)Cc4cccc(OC(F)(F)F)c4)nn3)s2)c1 [Compound 696] | 34 nM
42 | O=C(Cc1cccc(OC(F)(F)F)c1)Nc1ccc(CCCCc2nnc(NC(=O)Cc3c[nH]cn3)s2)nn1 [Compound 697] | 50 nM
43 | Cc1ccn(CC(=O)Nc2nnc(CCCCc3ccc(NC(=O)Cc4cccc(OC(F)(F)F)c4)nn3)s2)n1 [Compound 698] | 98 nM
44 | CC(C)c1cn(CC(=O)Nc2nnc(CCCCc3ccc(NC(=O)Cc4cccc(OC(F)(F)F)c4)nn3)s2)nn1 [Compound 699] | 120 nM

Row | SMILES | IC50
45 | O=C(Cc1cccc(OC(F)(F)F)c1)Nc1ccc(CCCCc2nnc(NC(=O)Cn3cc(Cl)cn3)s2)nn1 [Compound 700] | 170 nM
46 | Cc1cc(C)n(CC(=O)Nc2nnc(CCCCc3ccc(NC(=O)Cc4cccc(OC(F)(F)F)c4)nn3)s2)n1 [Compound 701] | 110 nM
47 | O=C(Cc1cccc(OC(F)(F)F)c1)Nc1ccc(CCCCc2nnc(NC(=O)Cn3c(CN4CCOCC4)nc4ccccc43)s2)nn1 [Compound 702] | 310 nM
48 | O=C(Cc1cccc(OC(F)(F)F)c1)Nc1ccc(CCCCc2nnc(NC(=O)CN3C[C@@H](O)CC3=O)s2)nn1 [Compound 704] | 880 nM
49 | Nc1ccc(CCCCc2nnc(NC(=O)Cc3ccccn3)s2)nn1 [Compound 706] | 14000 nM
50 | O=C(Cc1cccc(OC(F)(F)F)c1)Nc1ccc(CCCCc2nnc(NC(=O)CN3CCCCC3=O)s2)nn1 [Compound 707] | 85 nM
51 | O=C(Cc1cccc(OC(F)(F)F)c1)Nc1ccc(CCCCc2nnc(NC(=O)CN3C(=O)CCC3=O)s2)nn1 [Compound 708] | 2800 nM
52 | O=C(Cc1cccc(OC(F)(F)F)c1)Nc1ccc(CCCCc2nnc(NC(=O)CN3CCCC3=O)s2)nn1 [Compound 709] | 140 nM
53 | O=C(Cc1ccccn1)Nc1nnc(CCCCc2ccc(NC(=O)C(O)c3ccccc3)nn2)s1 (stereo not shown) [Compound 715] | 390 nM
54 | O=C(Cc1cccc(OC(F)(F)F)c1)Nc1ccc(CCCCc2nnc(NC(=O)Cc3cccc[n+]3[O-])s2)nn1 [Compound 716] | 180 nM
55 | COc1ccc(OC(F)(F)F)cc1CC(=O)Nc1ccc(CCCCc2nnc(NC(=O)Cc3ccccn3)s2)nn1 [Compound 717] | 190 nM
56 | O=C(Cc1cc(OC(F)(F)F)ccc1O)Nc1ccc(CCCCc2nnc(NC(=O)Cc3ccccn3)s2)nn1 [Compound 718] | 15 nM
57 | O=C(Cc1ccc(F)c(OC(F)(F)F)c1)Nc1ccc(CCCCc2nnc(NC(=O)Cc3ccccn3)s2)nn1 [Compound 719] | 10 nM
58 | O=C(Cc1cc(OC(F)(F)F)ccc1F)Nc1ccc(CCCCc2nnc(NC(=O)Cc3ccccn3)s2)nn1 [Compound 720] | 920 nM
59 | O=C(Cc1ccc(Cl)c(OC(F)(F)F)c1)Nc1ccc(CCCCc2nnc(NC(=O)Cc3ccccn3)s2)nn1 [Compound 721] | 22 nM
60 | COc1ccc(CC(=O)Nc2ccc(CCCCc3nnc(NC(=O)Cc4ccccn4)s3)nn2)cc1OC(F)(F)F [Compound 722] | 16 nM
61 | O=C(Cc1ccc(O)c(OC(F)(F)F)c1)Nc1ccc(CCCCc2nnc(NC(=O)Cc3ccccn3)s2)nn1 [Compound 723] | 20 nM
62 | CC(C)(C)OC(=O)Nc1cccc(CC(=O)Nc2nnc(CCCCc3ccc(NC(=O)Cc4cccc(OC(F)(F)F)c4)nn3)s2)n1 [Compound 724] | 34 nM
63 | Nc1cccc(CC(=O)Nc2nnc(CCCCc3ccc(NC(=O)Cc4cccc(OC(F)(F)F)c4)nn3)s2)n1 [Compound 725] | 150 nM
64 | [2H]C([2H])(CCc1nnc(N)s1)C([2H])([2H])c1ccc(NC(=O)Cc2cccc(OC(F)(F)F)c2)nn1 [Compound 726] | 610 nM
